The values that follow are results of earlier work, collected in patent US12251361B2, “Solutions for oral dosage” (LIQMEDS WORLDWIDE LIMITED, priority 2019, dated 2025).

`CN(C)CCC=C1c2ccccc2CCc2ccccc21.Cl` [Amitriptyline HCl, 3-(10,11-dihydro-5H-dibenzo[a,d]cycloheptene-5-ylidene)-N,N-dimethyl-1-propanamine hydrochloride]: the Solubility in water entry is reported as “freely soluble”.
